One test concerns E. coli K12 PBP1a/b. In words: Bocillin FL competition binding assay, PBP1a/1b combined. On the set-up: species or system Escherichia coli K12. As to conditions: 15 min pre-incubation, PBP 1a/1b combined. The protocol: (§1) To determine the ability of test compounds to bind Penicillin Binding Proteins (PBPs), a competition binding assay using Bocillin FL (fluorescent derivative of penicillin V) was adapted from the classical method used to assess PBP potency of beta-lactams.
(§2) Penicillin binding proteins were isolated from Escherichia coli K12 by growth of Escherichia coli K12 from a single colony in 4 L of Luria-Bertani (LB) broth at 35° C. and 250 rpm to an OD600 nm of 0.5. The cells were harvested by centrifugation at 7,000×g for 10 min. at 4° C. Cells were resuspended and washed in 50 mM potassium phosphate pH 7.5. The cells were re-suspended in sonication buffer [50 mM Tris-HCl pH 7.5, 1 mM MgCl2, 1 mM beta-mercaptoethanol, and 5 μg/mL DNAse I] and sonicated by 4 passes of 30 seconds at 45 W on ice. The sample was clarified by centrifugation at 3,000×g to remove cell debris and unbroken cells and supernatant containing the membrane proteins was retained. The membrane proteins including the PBPs were further purified from soluble constituents by an ultracentrifugation step at 100,000×g for 30 min. at 4° C. The membrane proteins are washed twice with 10 mM sodium phosphate pH 7, resuspended in a volume of 5 mL, quantitated by BCA assay, adjusted to […] and frozen at −80° C. until use.
(§3) The adapted Bocillin FL competition binding method described herein incorporates a 15 min. pre-incubation of test compound with isolated PBPs to attempt to balance the difference in mechanism of inhibition between beta-lactams (largely irreversible covalent bond to active site Serine) and the boron-containing PBP inhibitor test compounds (reversible covalent bond to active site Serine). Briefly, 50 μL reactions consisted of 100 μg's of total membrane protein extracts containing PBPs incubated with a dilution series of test compound ranging from 0.005 μg/mL to 2,480 μg/mL in 10 mM sodium phosphate pH7 containing 350 mM NaCl. Thirty minute reactions at 35° C. were initiated by addition of […] Bocillin FL, quenched by addition of SDS-PAGE loading buffer containing sodium dodecyl sulfate (SDS) and heated for 15 minutes at 95° C. to denature proteins in preparation for SDS-polyacrylamide gel electrophoresis. The Bocillin FL labeled PBPs are then separated by SDS-PAGE in Novex NuPage 10% Bis-Tris pre-cast gels (Invitrogen). The SDS-PAGE gel, post-electrophoresis, is then washed in water to remove excess SDS for 10 minutes at room temperature and placed on the scanning bed of a GE Healthcare/Amersham Biosciences Storm 860 fluorescence scanner. The excitation wavelength is in the blue spectrum at 450 nm and the emission at 520 nm is captured by the instrument. Effective PBP inhibitors are detected by a reduction in Bocillin FL labeling of the particular PBP over the dose range of test compound in a dose-responsive manner. High molecular weight PBP 1a/1b are not resolved by these gels, thus we report HMW PBP binding results in μg/mL for PBPs 1a/1b combined as well as for PBP2 and PBP3.
(§4) Representative results are shown in Table 2, where A represents a potency of >1000 μg/mL, B represents a potency between 64 and 1000 μg/mL inclusive, and C represents a potency of <64 μg/mL. NT=Not Tested.

The target of the next test is T1, E. coli PBP2 (Escherichia coli, UniProt P0AD65).
T1 construct: 100 μg's of total membrane protein extracts containing PBPs; endogenous in cells; host or cells: Escherichia coli K12, membrane protein fraction
T1 sequence (P0AD65 whole entry): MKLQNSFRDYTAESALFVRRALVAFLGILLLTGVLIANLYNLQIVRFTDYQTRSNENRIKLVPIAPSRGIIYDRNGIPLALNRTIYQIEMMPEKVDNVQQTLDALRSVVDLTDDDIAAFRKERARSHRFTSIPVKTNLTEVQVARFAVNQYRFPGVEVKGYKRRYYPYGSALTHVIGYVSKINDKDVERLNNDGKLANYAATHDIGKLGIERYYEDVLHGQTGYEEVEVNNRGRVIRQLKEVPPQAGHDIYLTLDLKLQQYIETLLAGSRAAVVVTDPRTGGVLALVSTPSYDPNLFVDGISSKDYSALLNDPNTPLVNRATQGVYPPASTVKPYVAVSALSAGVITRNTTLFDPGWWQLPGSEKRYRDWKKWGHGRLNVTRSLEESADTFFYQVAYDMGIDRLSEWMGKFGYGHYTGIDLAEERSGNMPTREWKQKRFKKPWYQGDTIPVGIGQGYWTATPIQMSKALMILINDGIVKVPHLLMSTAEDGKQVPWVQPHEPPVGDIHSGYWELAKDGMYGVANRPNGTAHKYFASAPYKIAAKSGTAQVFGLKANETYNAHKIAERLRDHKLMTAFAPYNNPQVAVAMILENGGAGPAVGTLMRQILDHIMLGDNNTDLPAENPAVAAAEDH
In words: Bocillin FL competition binding assay, PBP2. On the set-up: species or system Escherichia coli K12. The note with it: 15 min pre-incubation. The protocol: as §1, §2, §3, §4

In the next test the target is T2, E. coli PBP3 (Escherichia coli, UniProt P0AD68).
T2 construct: 100 μg's of total membrane protein extracts containing PBPs; endogenous in cells; host or cells: Escherichia coli K12, membrane protein fraction
T2 sequence (P0AD68 1-577): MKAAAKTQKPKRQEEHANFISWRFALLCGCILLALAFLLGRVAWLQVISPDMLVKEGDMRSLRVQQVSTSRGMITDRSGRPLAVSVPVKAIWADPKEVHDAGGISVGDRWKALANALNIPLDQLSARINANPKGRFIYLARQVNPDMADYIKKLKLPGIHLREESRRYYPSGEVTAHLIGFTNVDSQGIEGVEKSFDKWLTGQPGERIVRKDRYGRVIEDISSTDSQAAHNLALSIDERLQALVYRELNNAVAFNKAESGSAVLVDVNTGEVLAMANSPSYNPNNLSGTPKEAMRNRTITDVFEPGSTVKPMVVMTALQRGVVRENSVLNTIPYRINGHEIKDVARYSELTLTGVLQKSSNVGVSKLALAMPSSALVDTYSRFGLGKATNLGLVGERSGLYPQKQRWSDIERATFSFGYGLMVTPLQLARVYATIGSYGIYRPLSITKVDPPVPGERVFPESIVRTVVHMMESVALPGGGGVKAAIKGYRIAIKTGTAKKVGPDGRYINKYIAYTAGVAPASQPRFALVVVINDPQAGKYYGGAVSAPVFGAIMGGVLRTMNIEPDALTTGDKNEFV
In words: Bocillin FL competition binding assay, PBP3. On the set-up: species or system Escherichia coli K12. The note with it: 15 min pre-incubation. Here is the method:
as §1, §2, §3, §4

A further test has as its system S. aureus ATCC 29213. In words: Broth microdilution MIC assay, S. aureus. In kind it is cell-based. As to conditions: Staphylococcus aureus, ATCC29213; broth microdilution, 16-20 hours at 37° C.; read-out: S. aureus 29213 MIC. An outline of the steps:
(§5)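 Two-fold serial dilutions tested per CLSI in cation-supplemented Mueller-Hinton broth against S. aureus ATCC 29213 and hyper-permeable E. coli 901C; inoculum 5×10^5 CFU/mL from 3-5 h log-phase culture. Incubated 16-20 h at 37° C; MIC read visually as lowest concentration with no growth.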
(Broth dilution looks for growth in wells or tubes with falling amounts of substance.)

The test system of test [1] is hyper-permeable E. coli 901C. In words: Broth microdilution MIC assay, hyper-permeable E. coli. The class given is cell-based. As to conditions: Escherichia coli, read-out: E. coli 901C MIC. An outline of the steps:
as §5

Broadly, the MIC is the least concentration at which growth counts as inhibited. Turning to `N=C(N)c1ccc(OCCO/N=C(\C(=O)N[C@H]2Cc3cccc(C(=O)O)c3OB2O)c2csc(N)n2)cc1` [Example 55, (R,Z)-3-(2-(2-aminothiazol-4-yl)-2-((2-(4-carbamimidoylphenoxy)ethoxy)imino)acetamido)-2-hydroxy-3,4-dihydro-2H-benzo[e][1,2]oxaborinine-8-carboxylic Acid], the “E. coli K12 PBP1a/b Potency” value in the test on E. coli K12 PBP1a/b was “C (C represents a potency of <64 μg/mL)”. Moreover, at E. coli PBP2, the “E. coli PBP2 Potency” value was “B (B represents a potency between 64 and 1000 μg/mL inclusive)”. Besides, the “E. coli PBP3 Potency” value on E. coli PBP3 is on record as “C (C represents a potency of <64 μg/mL)”. Further, the MIC was > 128 µg/mL with S. aureus ATCC 29213 and < 64 µg/mL in test [1].
Turning to `N#Cc1ccc(NC(=O)CO/N=C(\C(=O)N[C@H]2Cc3cccc(C(=O)O)c3OB2O)c2csc(N)n2)cc1` [Example 56, (R,Z)-3-(2-(2-aminothiazol-4-yl)-2-((2-((4-cyanophenyl)amino)-2-oxoethoxy)imino)acetamido)-2-hydroxy-3,4-dihydro-2H-benzo[e][1,2]oxaborinine-8-carboxylic Acid], the “E. coli K12 PBP1a/b Potency” value in the test on E. coli K12 PBP1a/b was “B (B represents a potency between 64 and 1000 μg/mL inclusive)”. The “E. coli PBP2 Potency” value at E. coli PBP2 was “C (C represents a potency of <64 μg/mL)”. Moreover, the “E. coli PBP3 Potency” value on E. coli PBP3 was “C (C represents a potency of <64 μg/mL)”. Also, the MIC is 64 to 128 µg/mL in the test on S. aureus ATCC 29213 and < 64 µg/mL in test [1].
With `CNC(=O)CO/N=C(\C(=O)N[C@H]1Cc2cccc(C(=O)O)c2OB1O)c1csc(N)n1` [Example 57, (R,Z)-3-(2-(2-aminothiazol-4-yl)-2-((2-(methylamino)-2-oxoethoxy)imino)acetamido)-2-hydroxy-3,4-dihydro-2H-benzo[e][1,2]oxaborinine-8-carboxylic Acid], the “E. coli K12 PBP1a/b Potency” value in the test on E. coli K12 PBP1a/b is listed as “C (C represents a potency of <64 μg/mL)”. The “E. coli PBP2 Potency” value at E. coli PBP2 is “B (B represents a potency between 64 and 1000 μg/mL inclusive)”. For the same compound, the “E. coli PBP3 Potency” value at E. coli PBP3 is recorded as “C (C represents a potency of <64 μg/mL)”. The minimal inhibitory concentration (MIC) with S. aureus ATCC 29213 was > 128 µg/mL; in test [1] it was < 64 µg/mL.
With `Nc1nc(/C(=N/OCC(=O)N2CCNCC2)C(=O)N[C@H]2Cc3cccc(C(=O)O)c3OB2O)cs1` [Example 58, (R,Z)-3-(2-(2-aminothiazol-4-yl)-2-((2-oxo-2-(piperazin-1-yl)ethoxy)imino)acetamido)-2-hydroxy-3,4-dihydro-2H-benzo[e][1,2]oxaborinine-8-carboxylic Acid], the “E. coli K12 PBP1a/b Potency” value with E. coli K12 PBP1a/b was “B (B represents a potency between 64 and 1000 μg/mL inclusive)”. The “E. coli PBP2 Potency” value on E. coli PBP2 is recorded as “C (C represents a potency of <64 μg/mL)”. For the same compound, at E. coli PBP3, the “E. coli PBP3 Potency” value is given as “C (C represents a potency of <64 μg/mL)”. The results for the minimum inhibitory concentration (MIC) (in the test with S. aureus ATCC 29213; in test [1]) were > 128 µg/mL and < 64 µg/mL, respectively.
For `CN(C)C(=O)CO/N=C(\C(=O)N[C@H]1Cc2cccc(C(=O)O)c2OB1O)c1csc(N)n1` [Example 60, (R,Z)-3-(2-(2-aminothiazol-4-yl)-2-((2-(dimethylamino)-2-oxoethoxy)imino)acetamido)-2-hydroxy-3,4-dihydro-2H-benzo[e][1,2]oxaborinine-8-carboxylic Acid], in the test with E. coli K12 PBP1a/b, the “E. coli K12 PBP1a/b Potency” value is “B (B represents a potency between 64 and 1000 μg/mL inclusive)”. Moreover, the “E. coli PBP2 Potency” value on E. coli PBP2 is given as “C (C represents a potency of <64 μg/mL)”. In addition, the “E. coli PBP3 Potency” value at E. coli PBP3 is recorded as “C (C represents a potency of <64 μg/mL)”. Further, the MIC in the test with S. aureus ATCC 29213 is > 128 µg/mL; in test [1], < 64 µg/mL.
For the compound `N#CC1CCC(NC(=O)CO/N=C(\C(=O)N[C@H]2Cc3cccc(C(=O)O)c3OB2O)c2csc(N)n2)CC1` (stereo partly drawn) [Example 62, (R)-3-((Z)-2-(2-aminothiazol-4-yl)-2-((2-(((1r,4R)-4-cyanocyclohexyl)amino)-2-oxoethoxy)imino)acetamido)-2-hydroxy-3,4-dihydro-2H-benzo[e][1,2]oxaborinine-8-carboxylic Acid], in the test with E. coli K12 PBP1a/b, the “E. coli K12 PBP1a/b Potency” value is “B (B represents a potency between 64 and 1000 μg/mL inclusive)”. The “E. coli PBP2 Potency” value at E. coli PBP2 was “B (B represents a potency between 64 and 1000 μg/mL inclusive)”. In addition, the “E. coli PBP3 Potency” value at E. coli PBP3 is reported as “C (C represents a potency of <64 μg/mL)”. Also, the MIC with S. aureus ATCC 29213 is > 128 µg/mL; in test [1] it was < 64 µg/mL.

The values are drawn from US11267826B2, “Penicillin-binding protein inhibitors” (priority 2017, dated 2022).
